Each structure is given as a SMILES string.

This assay in a line: Compound was tested for urinary glucose excretion (mg/24 h) at 100 mg/Kg dose of compound given perorally. More on the design: unit: mg/24 h. In kind it is functional, Rattus norvegicus, Urine.
Take `CC(=O)OC[C@H]1O[C@@H](Oc2cc(C)cc(OC(C)=O)c2C(=O)CCc2ccc3occc3c2)[C@H](O)[C@@H](O)[C@@H]1O`: the Urinary glucose excretion turned out to be 183.

Compound `O=C(CCc1ccc2occc2c1)c1c(O)cccc1O[C@@H]1O[C@H](CO)[C@@H](O)[C@H](O)[C@H]1O` returned a Urinary glucose excretion of 321.

Regarding `CC(=O)Oc1cc(C)cc(O[C@@H]2O[C@H](CO)[C@@H](O)[C@H](OC(C)=O)[C@H]2OC(C)=O)c1C(=O)CCc1ccc2occc2c1`, the Urinary glucose excretion was determined as 1450.

The compound `O=C(CCc1ccc2occc2c1)c1c(O)c(Cl)cc(Cl)c1O[C@@H]1O[C@H](CO)[C@@H](O)[C@H](O)[C@H]1O` gave a Urinary glucose excretion of 5.

Compound `C=CCc1ccc(O[C@@H]2O[C@H](CO)[C@@H](O)[C@H](O)[C@H]2O)c(C(=O)CCc2ccc3occc3c2)c1O` registered a Urinary glucose excretion of 5.

`Cc1ccc(O)c(C(=O)CCc2ccc3occc3c2)c1O[C@@H]1O[C@H](CO)[C@@H](O)[C@H](O)[C@H]1O` returned a Urinary glucose excretion of 5.

Consider `CC(C)c1cc(O)c(C(=O)CCc2ccc3occc3c2)c(O[C@@H]2O[C@H](CO)[C@@H](O)[C@H](O)[C@H]2O)c1`, for which the Urinary glucose excretion is given as 128.

Regarding `COc1cc(O)c(C(=O)CCc2ccc3occc3c2)c(O[C@@H]2O[C@H](CO)[C@@H](O)[C@H](O)[C@H]2O)c1`, the Urinary glucose excretion worked out at 38.

On to `CC(=O)O[C@H]1[C@H](Oc2cc(C)cc(O)c2C(=O)CCc2ccc3occc3c2)O[C@H](CO)[C@@H](O)[C@@H]1O`, for which the Urinary glucose excretion was found to be 482.

In the case of `COCC(=O)OC[C@H]1O[C@@H](Oc2cc(C)cc(O)c2C(=O)CCc2ccc3occc3c2)[C@H](O)[C@@H](O)[C@@H]1O`, the Urinary glucose excretion came to 721.

In the case of `CC(=O)O[C@H]1[C@H](Oc2cc(C)cc(O)c2C(=O)CCc2ccc3occc3c2)O[C@H](CO)[C@@H](O)[C@@H]1OC(C)=O`, the Urinary glucose excretion was 349.

`CC(=O)OC[C@H]1O[C@@H](Oc2cc(C)cc(O)c2C(=O)CCc2ccc3occc3c2)[C@H](O)[C@@H](O)[C@@H]1O` displayed a Urinary glucose excretion of 540.

Compound `CCc1ccc(O[C@@H]2O[C@H](CO)[C@@H](O)[C@H](O)[C@H]2O)c(C(=O)CCc2ccc3occc3c2)c1O` gave a Urinary glucose excretion of 1.

For the compound `COC1(C)OC[C@H]2O[C@@H](Oc3cc(C)cc(O)c3C(=O)CCc3ccc4occc4c3)[C@H](O)[C@@H](O)[C@@H]2O1` (some centres undefined), the Urinary glucose excretion was determined as 729.

As for `COC(=O)O[C@H]1[C@H](O)[C@@H](O)[C@H](Oc2cc(C)cc(O)c2C(=O)CCc2ccc3occc3c2)O[C@@H]1CO`, the Urinary glucose excretion was found to be 1407.

`COCCOC(=O)OC[C@H]1O[C@@H](Oc2cc(C)cc(O)c2C(=O)CCc2ccc3occc3c2)[C@H](O)[C@@H](O)[C@@H]1O` had a Urinary glucose excretion of 817.

`Cc1cc(O)c(C(=O)CCc2ccc3occc3c2)c(O[C@@H]2O[C@H](COC(=O)OC(C)C)[C@@H](O)[C@H](O)[C@H]2O)c1`: the Urinary glucose excretion was 980.

With `O=C(CCc1ccc2occc2c1)c1c(O)cc(Cl)cc1O[C@@H]1O[C@H](CO)[C@@H](O)[C@H](O)[C@H]1O`, the Urinary glucose excretion is recorded as 8.

Turning to `O=C(CCc1ccc2occc2c1)c1c(O)cc(O)cc1O[C@@H]1O[C@H](CO)[C@@H](O)[C@H](O)[C@H]1O`, the Urinary glucose excretion was found to be 38.

Regarding `CCOC(=O)OC[C@H]1O[C@@H](Oc2cc(C)cc(O)c2C(=O)CCc2ccc3occc3c2)[C@H](O)[C@@H](O)[C@@H]1O`, the Urinary glucose excretion was 805.

Turning to `CCCc1cc(O)c(C(=O)CCc2ccc3occc3c2)c(O[C@@H]2O[C@H](CO)[C@@H](O)[C@H](O)[C@H]2O)c1`, the Urinary glucose excretion was 27.

`CCc1cc(O)c(C(=O)CCc2ccc3occc3c2)c(O[C@@H]2O[C@H](CO)[C@@H](O)[C@H](O)[C@H]2O)c1` had a Urinary glucose excretion of 864.

In turn, `Cc1cc(O)c(C(=O)CCc2ccc3occc3c2)c(O[C@@H]2O[C@H](CO)[C@@H](O)[C@H](O)[C@H]2O)c1` returned a Urinary glucose excretion of 935.

As to `COC(=O)OC[C@H]1O[C@@H](Oc2cc(C)cc(O)c2C(=O)CCc2ccc3occc3c2)[C@H](O)[C@@H](O)[C@@H]1O`, the Urinary glucose excretion was found to be 1192.

The record behind these values is ChEMBL document CHEMBL1132546, “Na(+)-glucose cotransporter (SGLT) inhibitors as antidiabetic agents. 4. Synthesis and pharmacological properties of 4'-dehydroxyphlorizin derivatives substituted on the B ring” (1999).
